Experimental data taken from patent US10406335B2, “Drug delivery systems and methods for treatment of prostate” (TARIS Biomedical LLC, priority 2012, dated 2019).

Tests used:
[1] = 14C gemcitabine tissue uptake after intra-urinary bladder perfusion or IV bolus in rats; type: in vivo, male Sprague Dawley rats
Protocol: The 6- and 24-hour continuous perfusions perfused 6.9 and 26.6 mg, respectively, of gemcitabine into the bladder. The single IV bolus included 5.0 mg of gemcitabine.
Blood (FIG. 8), urine, and tissue samples (e.g., bladder, prostate) (FIGS. 7 and 9) were collected and analyzed for gemcitabine content. The results are illustrated in FIGS. 7-9.

prostate cancer = settings: Phase 2 clinical studies; cited from earlier work
[2] = Oxaliplatin or cisplatin tissue uptake after intra-urinary bladder perfusion or IV bolus in rats; settings: 6- or 24-hour continuous bladder perfusion; FIG. 10 and FIG. 11

Structure (SMILES)	gemcitabine levels in bladder tissue ([1]; 6- or 24-hour continuous bladder perfusion (6.9 and 26.6 mg), sustained urine concentrations, FIG. 9)	concentration of gemcitabine in the bladder ([1]; 24 hours after a clinically relevant IV dose (5.0 mg bolus), compared with bladder perfusion, FIG. 9)	prostate gemcitabine tissue concentrations ([1]; after bladder perfusion, compared with IV administration, FIG. 7)	efficacy in prostate cancer patients (prostate cancer)	bladder concentrations [2]
Nc1ccn([C@@H]2O[C@H](CO)[C@@H](O)C2(F)F)c(=O)n1 [gemcitabine]	at or exceed therapeutic concentrations	significantly lower concentration	substantially higher than those observed after IV administration	limited efficacy	–
O=C1[O][Pt]2([NH][C@@H]3CCCC[C@H]3[NH]2)[O]C1=O [oxaliplatin]	–	–	–	–	achieving therapeutic bladder concentrations
